According to PMC7395068, “The evolution of strategies to minimise the risk of human drug-induced liver injury (DILI) in drug discovery and development” (Archives of Toxicology, 2020):
Like-named read-outs stand apart in the source and are kept apart here.

Assays:
[1] = ref Chen 2011; cited from earlier work
[2] = Plasma free fraction (fu) and unbound Cmax (Cmax,u); type: in vitro ADME, human; settings: unbound plasma Cmax
Procedure: The prediction of DILI severity was evaluated further using the 3D combined HCI assays using plasma-free fraction. The majority of fu values were obtained from literature, when unavailable in-house prediction was utilised. Unbound plasma Cmax concentrations (Cmax,u) were derived by multiplying total plasma Cmax with the corresponding free fraction (fu) for each compound.

HepG2 cells [3] = settings: cited from earlier work
[4] = system: HepG2 C3A spheroid, BSEP, Glu/Gal in HepG2 cells, bioactivation; settings: cited from earlier work
[5] = cited from earlier work
hLiMTs [6] = settings: cited from earlier work
[7] = system: isolated mouse liver mitochondria; settings: In vitro Assay; ref Porceddu 2012; cited from earlier work
[8] = system: THLE-Null and THLE-3A4 cells; settings: In vitro Assay; ref Gustafsson 2014; cited from earlier work
HepG2 cells [9] = settings: In vitro Assay; ref O'Brien 2006; cited from earlier work
Upcyte human hepatocytes = settings: In vitro Assay; ref Tolosa 2019; cited from earlier work
[10] = plasma free fraction; cited from earlier work
HepG2 cells [11] = settings: cited from earlier work; remark: listed apart in the source
[12] = system: THLE or HepG2 cells, isolated mitochondria, BSEP; settings: cited from earlier work
PHH spheroids = settings: cited from earlier work
[13] = cited from earlier work; remark: listed apart in the source
human hepatocytes = settings: In vitro Assay; ref Xu 2008; cited from earlier work
hLiMTs [14] = experiment: Combined HCI (HCS) and cellular ATP 3D assay in hLiMTs; settings: for AC50 / minimal effective concentration: Homo sapiens
rBsep = settings: In vitro Assay; ref Dawson 2012; cited from earlier work
HepaRG spheroids = experiment: Combined HCI (HCS) and cellular ATP 3D assay in HepaRG spheroids; settings: for AC50 / minimal effective concentration: Homo sapiens
[15] = system: HepG2 cells, primary human hepatocytes; settings: In vitro Assay; ref Garside 2014; cited from earlier work
PHH = settings: cited from earlier work
[16] = system: primary human hepatocytes, NIH3T3 fibroblasts, BSEP, CYP3A4; settings: cited from earlier work
[17] = cited from earlier work; remark: listed apart in the source
[18] = In vitro Assay, ref Persson 2013
[19] = In vitro Assay, ref Proctor 2017
[20] = Modeled in vitro assays (cytotoxicity, mitochondrial dysfunction, BSEP), ref Aleo et al. 2019
[21] = Microtissue model structural based (HCI), combined HCS and ATP, MEC < 25 × Cmax.tot cut-off
[22] = In vitro Assay, ref Schadt 2015

Structure (SMILES): CC(C)C(=O)Nc1ccc([N+](=O)[O-])c(C(F)(F)F)c1 [flutamide, reference compound]
- DILI Score (FDA) (1-8) [1]: 8
- Human plasma Cmax,u [2]: 0.272 µM
- Cluser analysis (HepG2 cells [3]; [18]): -VE
- Structural based (HCI) (HepG2 cells [3]; [18]): -VE
- DILI in vitro assay prediction, Persson (2013) (HepG2 cells [3]; Structural based (HCI), HepG2, ref Persson et al. 2013): -VE
- Bayesian Machine Learning DILI prediction, Williams (2019) ([4]; Bayesian modeling, ref Williams et al. 2019): +VE
- Bayesian Machine Learning ([4]; In vitro Assay, ref Williams 2019): +VE
- Cmax ([5]; read-out: Cmax.tot, value used for normalisation, ref O'Brien et al. 2006): 6 µM
- Cmax ([5]; read-out: Cmax.tot, value used for normalisation, ref Xu et al. 2008): 0.36 µM
- Cmax ([5]; read-out: Human plasma Cmax, total plasma Cmax.tot, median of 9 literature references): 5.43 µM
- hLiMTs ATP <100uM (hLiMTs [6]; [19]): +VE (IC50 threshold of 100 µM)
- hLiMTs/100xCmax, Proctor (2017) (hLiMTs [6]; hLiMTs, ATP, IC50 < 100 × Cmax.tot, ref Proctor et al. 2017): +VE (IC50 < 100 × Cmax.tot)
- hLiMTs/100uM, Proctor (2017) (hLiMTs [6]; hLiMTs, ATP, IC50 threshold 100 µM, ref Proctor et al. 2017): +VE (IC50 threshold of 100 µM)
- in vitro data EC2<=1x Cmax [7]: +VE
- in vitro data EC20<=2uM [7]: -VE
- THLE-Null [8]: -VE
- THLE-Null/3A4 [8]: -VE
- Structural based (HCI) (HepG2 cells [9]): +VE
- Upcytes multi donor assay 14day data (Upcyte human hepatocytes): +VE
- fu [10]: 0.050
- Structural based (HCI) (HepG2 cells [11]; In vitro Assay, ref Tolosa 2012): +VE
- DILI in vitro assay prediction, Tolosa (2012) (HepG2 cells [11]; Structural based (HCI), HepG2, ref Tolosa et al. 2012): +VE
- Partition Hybrid HRM Score ([12]; In vitro Assay, ref Aleo 2019): +VE
- Ro2 Hybrid HRM Score ([12]; In vitro Assay, ref Aleo 2019): +VE
- Partition Hybrid HRM Score ≥4, Aleo (2019) [12, 20]: +VE (Partition Hybrid HRM Score ≥4)
- Partition Hybrid HRM Score ≥8, Aleo (2019) [12, 20]: +VE (Partition Hybrid HRM Score ≥8)
- Rule of Two hybrid HRM Score ≥3, Aleo (2019) [12, 20]: +VE (Rule of Two hybrid HRM Score ≥3)
- Rule of Two hybrid HRM Score ≥8, Aleo (2019) [12, 20]: +VE (Rule of Two hybrid HRM Score ≥8)
- hLiMTs ATP <20 x Cmax (PHH spheroids; In vitro Assay, ref Vorrink 2018): +VE (IC20 < 20 × Cmax.tot cut-off)
- DILI in vitro assay prediction, Vorrink (2018) (PHH spheroids; PHH spheroids, ATP, 14 days, IC20 < 20 × Cmax.tot, ref Vorrink et al. 2018): +VE (IC20 < 20 × Cmax.tot cut-off)
- DILI severity category (Chen et al. [2016]) ([13]; LTKB DILIrank category, ref Chen et al. 2016): Most
- DILI severity category (Chen 2016) ([13]; human DILI classification, LTKB DILIrank, ref Chen et al. 2016): Most
- DILI severity category ([13]; human DILI severity, ref Chen et al.): Most
- DILI +VE (5-8), DILI -VE (-4) ([13]; ref Chen 2016): +VE
- DILI severity category ([13]; ref Chen 2016): vMost-DILI-Concern
- Structural based (HCI) (human hepatocytes): -VE
- AC50 (hLiMTs [14]; read-out: ATP endpoint AC50): 29.9 µM
- minimal effective concentration (hLiMTs [14]; read-out: ATP endpoint MEC): 18.5 µM
- AC50 (hLiMTs [14]; read-out: HCS endpoint AC50): 43.5 µM
- minimal effective concentration (hLiMTs [14]; read-out: HCS endpoint MEC): 3.63 µM
- DILI prediction hLiMTs (HCS-MEC) (hLiMTs [14]; [21]): +VE (MEC < 25 × Cmax.tot cut-off)
- hLiMTs <25x Avg Cmax ATP (hLiMTs [14]; hLiMTs, ATP endpoint, cut-off <25x Avg Cmax): +ve
- hLiMTs <100x Avg Cmaxu ATP (hLiMTs [14]; hLiMTs, ATP endpoint, cut-off <100x Avg Cmaxu): +ve (<100x Avg Cmaxu)
- hLiMTs <25x Avg Cmax HCS (hLiMTs [14]; hLiMTs, HCS endpoints, cut-off <25x Avg Cmax): +ve
- hLiMTs <100x Avg Cmaxu HCS (hLiMTs [14]; hLiMTs, HCS endpoints, cut-off <100x Avg Cmaxu): +ve (<100x Avg Cmaxu)
- hLiMTs <25x Avg Cmax All (hLiMTs [14]; hLiMTs, all endpoints (ATP and HCS), cut-off <25x Avg Cmax): +ve
- hLiMTs Cmax max All (hLiMTs [14]; hLiMTs, all endpoints, Cmax max used): +ve
- hLiMTs Cmax min All (hLiMTs [14]; hLiMTs, all endpoints, Cmax min used): +ve
- hLiMTs <10 uM All (hLiMTs [14]; hLiMTs, all endpoints, cut-off <10 uM): +ve (<10 uM)
- hLiMTs <100x Avg Cmaxu All (hLiMTs [14]; hLiMTs, all endpoints, cut-off <100x Avg Cmaxu): +ve (<100x Avg Cmaxu)
- Inhibition of rBsep cutoff<1& cmax u>.2 (rBsep): +VE
- Inhibition of rBsep cutoff<3 (rBsep): +VE
- HepaRG <25x Avg Cmax ATP (HepaRG spheroids; HepaRG, ATP endpoint, cut-off <25x Avg Cmax): +ve
- HepaRG <100x Avg Cmaxu ATP (HepaRG spheroids; HepaRG, ATP endpoint, cut-off <100x Avg Cmaxu): +ve (<100x Avg Cmaxu)
- HepaRG <25x Avg Cmax HCS (HepaRG spheroids; HepaRG, HCS endpoints, cut-off <25x Avg Cmax): +ve
- HepaRG <100x Avg Cmaxu HCS (HepaRG spheroids; HepaRG, HCS endpoints, cut-off <100x Avg Cmaxu): +ve (<100x Avg Cmaxu)
- HepaRG <25x Avg Cmax All (HepaRG spheroids; HepaRG, all endpoints (ATP and HCS), cut-off <25x Avg Cmax): +ve
- HepaRG Cmax max All (HepaRG spheroids; HepaRG, all endpoints, Cmax max used): +ve
- HepaRG Cmax min All (HepaRG spheroids; HepaRG, all endpoints, Cmax min used): +ve
- HepaRG <10 uM All (HepaRG spheroids; HepaRG, all endpoints, cut-off <10 uM): +ve (<10 uM)
- HepaRG <100x Avg Cmaxu All (HepaRG spheroids; HepaRG, all endpoints, cut-off <100x Avg Cmaxu): +ve (<100x Avg Cmaxu)
- AC50 (HepaRG spheroids; HepaRG, read-out: ATP endpoint AC50): 14.9 µM
- minimal effective concentration (HepaRG spheroids; HepaRG, read-out: ATP endpoint MEC): 7.75 µM
- AC50 (HepaRG spheroids; HepaRG, read-out: HCS endpoint AC50): 42.7 µM
- minimal effective concentration (HepaRG spheroids; HepaRG, read-out: HCS endpoint MEC): 13.9 µM
- DILI prediction HepaRG spheroids (HCS-MEC) (HepaRG spheroids; [21]): +VE (MEC < 25 × Cmax.tot cut-off)
- Cluster 1-6 +VE Assay [15]: +VE
- PHH/100xCmax, Proctor (2017) (PHH; 2D PHH, ATP, IC50 < 100 × Cmax.tot, ref Proctor et al. 2017): +VE (IC50 < 100 × Cmax.tot)
- PHH/100uM, Proctor (2017) (PHH; 2D PHH, ATP, IC50 threshold 100 µM, ref Proctor et al. 2017): +VE (IC50 threshold of 100 µM)
- PHH ATP <100uM (PHH; [19]): +VE (IC50 threshold of 100 µM)
- DILI in vitro assay prediction, Schadt (2015) ([16]; BSEP & Metabolism based, ref Schadt et al. 2015): +VE
- Cellular toxicity (3T3 cells) [16, 22]: -VE
- Combined Assay [16, 22]: +VE
- GSH adduct HML [16, 22]: +VE
- Hepatocyte cellular toxicity [16, 22]: -VE
- MitoTox 3T3 [16, 22]: +VE
- TDI CYP3A4 [16, 22]: -VE
- hBSEP inhibition [16, 22]: -VE
- Assigned DILI category ([17]; Chen et al. 2016 or literature alignment, ref Chen et al. 2016): 3
- In vivo DILI ([17]; […]): +VE
- In vivo DILI ([17]; ref Aleo 2019): +VE
- In vivo DILI ([17]; ref Dawson 2012): +VE
- In vivo DILI ([17]; ref Garside 2014): +VE
- In vivo DILI ([17]; ref Gustafsson 2014): +VE
- In vivo DILI ([17]; ref O'Brien 2006): +VE
- In vivo DILI ([17]; ref Persson 2013): +VE
- In vivo DILI ([17]; ref Porceddu 2012): -VE
- In vivo DILI ([17]; ref Proctor 2017): +VE
- In vivo DILI ([17]; ref Schadt 2015): +VE
- In vivo DILI ([17]; ref Tolosa 2012): +VE
- In vivo DILI ([17]; ref Tolosa 2019): +VE
- In vivo DILI ([17]; ref Vorrink 2018): +VE
- In vivo DILI ([17]; ref Williams 2019): +VE
- In vivo DILI ([17]; ref Xu 2008): +VE
